The values that follow come from patent US9593097B2, “Axl inhibitors” (Pfizer Inc., priority 2014, dated 2017).

The target in the test is Axl phosphorylation in 293MSR-AxlWT6 cells (Homo sapiens (Human), UniProt P30530). The test is described as follows: Cellular Axl phosphorylation ELISA assay (Gas6-stimulated 293MSR-AxlWT6 cells). Format: cell-based. Conditions: Table 4A, read-out: CELL AXL IC50. Here is the method:
Cellular Axl Phosphorylation ELISA Assay
After 6-7 hrs in tissue culture incubator at 37° C. 5% CO2, medium was removed, serum-free medium was added (with 0.04% bovine serum albumin) and plates were returned to incubator where they remained overnight. […] Media was then removed and lysis buffer was added to wells and shaken at 4° C. for 30 min to generate protein lysates. Subsequently, phosphorylation of Axl was assessed by a sandwich ELISA method using a DuoSet IC Human Phospho-Axl ELISA assay kit (R&D System), an immobilized mouse anti-human Axl antibody and an anti-phospho-tyrosine-HRP antibody as a detection antibody. Antibody-coated plates were (a) incubated in presence of protein lysates at room temperature for 2 hrs, (b) washed seven times in 0.1% Tween 20 in PBS, (c) incubated with secondary antibody (a horseradish peroxidase-conjugated […]) for 2 hrs, (d) washed seven times again, (e) TMB peroxidase substrate (Bio-Rad) was added to initiate a colorimetric reaction and stopped by adding 0.2 N H2SO4, and (f) measured at OD 450 nm using a spectrophotometer. IC50 values were calculated by concentration-response curve fitting using a four-parameter analytic method and reported in μM.
For Table 4B, IC50 values were calculated by concentration-response curve fitting using a four-parameter analytic method and reported in nM.
On the technique in general: In an ELISA, binding on a coated surface is turned into a signal by an enzyme label.

Sequence of Axl phosphorylation in 293MSR-AxlWT6 cells (P30530 26-894): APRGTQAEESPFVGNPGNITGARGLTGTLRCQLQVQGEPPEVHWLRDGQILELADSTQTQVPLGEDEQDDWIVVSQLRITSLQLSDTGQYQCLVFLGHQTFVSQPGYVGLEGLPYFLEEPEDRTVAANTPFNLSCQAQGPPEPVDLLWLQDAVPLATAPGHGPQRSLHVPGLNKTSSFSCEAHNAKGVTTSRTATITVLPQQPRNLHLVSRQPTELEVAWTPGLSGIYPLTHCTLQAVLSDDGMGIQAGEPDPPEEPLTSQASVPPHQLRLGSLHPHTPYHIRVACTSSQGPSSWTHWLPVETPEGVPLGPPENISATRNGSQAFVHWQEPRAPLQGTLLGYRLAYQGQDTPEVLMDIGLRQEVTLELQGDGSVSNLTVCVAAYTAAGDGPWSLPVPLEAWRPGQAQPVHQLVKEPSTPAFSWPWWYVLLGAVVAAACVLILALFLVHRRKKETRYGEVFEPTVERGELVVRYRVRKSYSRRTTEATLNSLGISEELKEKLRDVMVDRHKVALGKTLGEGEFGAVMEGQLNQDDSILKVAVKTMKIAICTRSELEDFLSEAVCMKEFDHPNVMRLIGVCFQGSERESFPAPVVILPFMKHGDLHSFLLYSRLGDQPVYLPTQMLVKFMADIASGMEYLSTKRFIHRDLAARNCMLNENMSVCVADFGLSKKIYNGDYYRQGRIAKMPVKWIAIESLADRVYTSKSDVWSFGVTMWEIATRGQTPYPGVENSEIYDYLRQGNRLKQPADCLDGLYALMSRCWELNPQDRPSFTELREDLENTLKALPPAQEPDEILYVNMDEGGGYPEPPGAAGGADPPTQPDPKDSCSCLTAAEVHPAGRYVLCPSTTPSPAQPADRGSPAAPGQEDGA

By IC50 is commonly meant the concentration that gives 50% inhibition. On to “6-{4-[(3-amino- 1H-indazol-4- yl)oxy]piperidin-1- yl}-N- (bicyclo[1.1.1]pent- 1-yl)-2-[(1- cyanocyclopropyl) methoxy] pyrimidine- 4-carboxamide [Example 19]”, for which the IC50 came to 0.0247 µM. With `C[C@@H](NC(=O)c1cc(N2CCC(c3ccc(N)c(C(N)=O)n3)CC2)nc(OCC2CC2(F)F)n1)C(C)(C)O` (single isomer, unassigned) [Example 15], the IC50 amounted to 0.00836 µM. Turning to `C[C@@H](NC(=O)c1cc(N2CCC(c3ccc(N)c(C(N)=O)n3)CC2)nc(OCC2CC2(F)F)n1)C(C)(C)O` (single isomer, unassigned) [Example 16], the IC50 came out at 0.0126 µM.

`COC[C@@H](C)Oc1nc(C(=O)N[C@H](C)CN(C)C)cc(N2CCC(c3ccc(N)c(C(N)=O)n3)CC2)n1` (single isomer, unassigned) [Example 36]: the IC50 was found to be 0.0874 µM. In the case of `N#C[C@@H]1C[C@@H]1COc1nc(C(=O)NC23CC(C2)C3)cc(N2CCC(COc3cncnc3N)C(F)(F)C2)n1` (single isomer, unassigned) [Example 62] it was 0.0387 µM; in that of `N#C[C@@H]1C[C@@H]1COc1nc(C(=O)NC23CC(C2)C3)cc(N2CCC(c3n[nH]c4ncccc34)C(F)C2)n1` (single isomer, unassigned) [Example 74], 0.0155 µM; in that of `N#C[C@@H]1C[C@@H]1COc1nc(C(=O)NC23CC(C2)C3)cc(N2CC[C@@H](c3n[nH]c4ncccc34)[C@@H](F)C2)n1` (single isomer, unassigned) [Example 78], 0.00842 µM.

As for `N#C[C@@H]1C[C@@H]1COc1nc(C(=O)NC23CC(C2)C3)cc(N2CC[C@H](c3n[nH]c4ncccc34)[C@H](F)C2)n1` (single isomer, unassigned) [Example 79], the IC50 was found to be 0.0564 µM.

For the molecule `CCOc1nc(C(=O)NC2CCC2)cc(N2CCC(c3nc(C(N)=O)ccc3OCCN(C)C)CC2)n1` [Example 2, 6-(4-{6-carbamoyl-3-[2-(dimethylamino)ethoxy]pyridin-2-yl}piperidin-1-yl)-N-cyclobutyl-2-ethoxypyrimidine-4-carboxamide], the IC50 turned out to be 0.246 µM.

As to `COC[C@@H](C)Oc1nc(C(=O)NC2CCC2)cc(N2CCC(c3ccc(N)c(C(N)=O)n3)CC2)n1` [Example 4, 6-[4-(5-amino-6-carbamoylpyridin-2-yl)piperidin-1-yl]-N-cyclobutyl-2-{[(2R)-1-methoxypropan-2-yl]oxy}pyrimidine-4-carboxamide], the IC50 came to 0.00283 µM. In the case of `NC(=O)c1nc(C2CCN(c3cc(C(=O)NCC(F)(F)F)nc(OCC4CC4(F)F)n3)CC2)ccc1N` (stereo not shown) [Example 5, 6-[4-(5-amino-6-carbamoylpyridin-2-yl)piperidin-1-yl]-2-[(2,2-difluoro-cyclopropyl)methoxy]-N-(2,2,2-trifluoroethyl) pyrimidine-4-carboxamide] it was 0.0124 µM; in that of `COC[C@@H](C)Oc1nc(C(=O)NCC(F)(F)F)cc(N2CCC(c3ccc(N)c(C(N)=O)n3)CC2)n1` [Example 6, 6-[4-(5-amino-6-carbamoylpyridin-2-yl)piperidin-1-yl]-2-{[(2R)-1-methoxypropan-2-yl]oxy}-N-(2,2,2-trifluoroethyl) pyrimidine-4-carboxamide], 0.0291 µM; in that of `COCCNC(=O)c1cc(N2CCC(c3ccc(N)c(C(N)=O)n3)CC2)nc(O[C@H](C)COC)n1` [Example 7, 6-[4-(5-amino-6-carbamoylpyridin-2-yl)piperidin-1-yl]-N-(2-methoxyethyl)-2-{[(2R)-1-methoxypropan-2-yl]oxy}pyrimidine-4-carboxamide], 0.0149 µM. Regarding `COC[C@@H](C)Oc1nc(C(=O)NCC(C)(C)O)cc(N2CCC(c3ccc(N)c(C(N)=O)n3)CC2)n1` [Example 8, 6-[4-(5-amino-6-carbamoylpyridin-2-yl)piperidin-1-yl]-N-(2-hydroxy-2-methylpropyl)-2-{[(2R)-1-methoxypropan-2-yl]oxy}pyrimidine-4-carboxamide], the IC50 came out at 0.0779 µM. `COC[C@@H](C)Oc1nc(C(=O)NC2CCC2)cc(N2CCC(c3cccc(C(N)=O)n3)CC2)n1` [Example 11, 6-[4-(6-carbamoylpyridin-2-yl)piperidin-1-yl]-N-cyclobutyl-2-{[(2R)-1-methoxypropan-2-yl]oxy}pyrimidine-4-carboxamide]: the IC50 came to 0.0102 µM.

As to `C[C@H](NC(=O)c1cc(N2CCC(c3cccc(C(N)=O)n3)CC2)nc(OCC2(C#N)CC2)n1)C(F)(F)F` [Example 13, 6-[4-(6-carbamoylpyridin-2-yl)piperidin-1-yl]-2-[(1-cyanocyclopropyl)methoxy]-N-[(2S)-1,1,1-trifluoropropan-2-yl]pyrimidine-4-carboxamide], the IC50 was 0.059 µM. With `COC[C@@H](C)Oc1nc(C(=O)NC2(C#N)CCC2)cc(N2CCC(c3n[nH]c4ncccc34)CC2)n1` [Example 14, N-(1-cyanocyclobutyl)-2-{[(2R)-1-methoxypropan-2-yl]oxy}-6-[4-(1H-pyrazolo[3,4-b]pyridin-3-yl)piperidin-1-yl]pyrimidine-4-carboxamide] the figure was 0.0124 µM; with `C[C@@H](NC(=O)c1cc(N2CCC(c3cccc(C(N)=O)n3)CC2)nc(OCC2CC2(F)F)n1)C(C)(C)O` (stereo partly drawn) [Example 17, 6-[4-(6-carbamoylpyridin-2-yl)piperidin-1-yl]-2-[(2,2-difluoro-cyclopropyl)methoxy]-N-[(2R)-3-hydroxy-3-methylbutan-2-yl]pyrimidine-4-carboxamide], 0.0399 µM.

Turning to `CN(C)CCOc1ccc(C(N)=O)nc1C1CCN(c2cc(C(=O)NC3CCC3)nc(OC[C@H]3C[C@H]3C#N)n2)CC1` [Example 18, 6-(4-{6-carbamoyl-3-[2-(dimethylamino)ethoxy]pyridin-2-yl}piperidin-1-yl)-2-{[(1S,2R)-2-cyanocyclopropyl]methoxy}-N-cyclobutyl-pyrimidine-4-carboxamide], the IC50 came out at 0.0649 µM. Consider `CCNC(=O)c1cc(N2CCC(COc3cc(C#N)cnc3N)CC2)nc(O[C@H](C)COC)n1` [Example 21, 6-(4-{[(2-amino-5-cyanopyridin-3-yl)oxy]methyl}piperidin-1-yl)-N-ethyl-2-{[(2R)-1-methoxypropan-2-yl]oxy}pyrimidine-4-carboxamide], for which the IC50 was found to be 0.037 µM. In the case of `COC[C@@H](C)Oc1nc(C(=O)NC23CC(C2)C3)cc(N2CCC(COc3nc(C)cnc3N)CC2)n1` [Example 24, 6-(4-{[(3-amino-6-methylpyrazin-2-yl)oxy]methyl}piperidin-1-yl)-N-(bicyclo[1.1.1]pent-1-yl)-2-{[(2R)-1-methoxypropan-2-yl]oxy}pyrimidine-4-carboxamide] it was 0.00192 µM; in that of `CCNC(=O)c1cc(N2CCC(COc3cc(-c4cnn(C)c4)cnc3N)CC2)nc(OC[C@H]2C[C@H]2C#N)n1` [Example 25, 6-[4-({[2-amino-5-(1-methyl-1H-pyrazol-4-yl)pyridin-3-yl]oxy}methyl)piperidin-1-yl]-2-{[(1S,2R)-2-cyanocyclopropyl]methoxy}-N-ethylpyrimidine-4-carboxamide], 0.00178 µM. With `N#CC1(COc2nc(C(=O)NCC(F)(F)F)cc(N3CCC(COc4cncnc4N)CC3)n2)CC1` [Example 31, 6-(4-{[(4-aminopyrimidin-5-yl)oxy]methyl}piperidin-1-yl)-2-[(1-cyanocyclopropyl)methoxy]-N-(2,2,2-trifluoroethyl) pyrimidine-4-carboxamide] the figure was 0.0126 µM.

On to `N#C[C@@H]1C[C@@H]1COc1nc(C(=O)NCC(F)(F)F)cc(N2CCC(COc3cncnc3N)CC2)n1` [Example 33, 6-(4-{[(4-aminopyrimidin-5-yl)oxy]methyl}piperidin-1-yl)-2-{[(1S,2R)-2-cyanocyclopropyl]methoxy}-N-(2,2,2-trifluoroethyl) pyrimidine-4-carboxamide], for which the IC50 was found to be 0.0234 µM. With `CC(CN(C)C)NC(=O)c1cc(N2CCC(c3ccc(N)c(C(N)=O)n3)CC2)nc(OCC2CC2)n1` (stereo not shown) [Example 34, 6-[4-(5-amino-6-carbamoylpyridin-2-yl)piperidin-1-yl]-2-(cyclopropyl-methoxy)-N-[1-(dimethylamino)propan-2-yl]pyrimidine-4-carboxamide] the figure was 0.0305 µM; with `CN(C)CCOc1ccc(C(N)=O)nc1C1CCN(c2cc(C(=O)NC3CCC3)nc(OC[C@@H]3C[C@@H]3C#N)n2)CC1` [Example 37, 6-(4-{6-carbamoyl-3-[2-(dimethylamino)ethoxy]pyridin-2-yl}piperidin-1-yl)-2-{[(1R,2S)-2-cyanocyclopropyl]methoxy}-N-cyclobutyl-pyrimidine-4-carboxamide], 0.242 µM. With `CN(C)CCOc1ccc(C(N)=O)nc1C1CCN(c2cc(C(=O)NC3CCC3)nc(OCC3CC3(F)F)n2)CC1` (stereo not shown) [Example 39, 6-(4-{6-carbamoyl-3-[2-(dimethylamino)ethoxy]pyridin-2-yl}piperidin-1-yl)-N-cyclobutyl-2-[(2,2-difluoro-cyclopropyl)methoxy] pyrimidine-4-carboxamide] the figure was 0.0838 µM. On to `COC[C@@H](C)Oc1nc(C(=O)NC2CCC2)nc(N2CCC(c3ccc(N)c(C(N)=O)n3)CC2)n1` [Example 40, 4-[4-(5-amino-6-carbamoylpyridin-2-yl)piperidin-1-yl]-N-cyclobutyl-6-{[(2R)-1-methoxypropan-2-yl]oxy}-1,3,5-triazine-2-carboxamide], for which the IC50 stood at 0.00577 µM.
